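Tested at 5 concentrations; 48 h exposure; 96-well plates; endpoints linearly interpolated, else capped at highest concentration. The concentration for 50% growth inhibition is given as GI50. TGI is the concentration that stops growth completely.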
How the values were obtained:
Assay in all cases: NCI anticancer screen, dose series, 48 h
OVCAR-4 ovarian = system: OVCAR-4 ovarian
UO-31 renal = system: UO-31 renal
COLO 205 colon = system: COLO 205 colon
SNB-19 CNS = system: SNB-19 CNS
SK-MEL-28 melanoma = system: SK-MEL-28 melanoma
UACC-257 melanoma = system: UACC-257 melanoma
NCI-H226 lung = system: NCI-H226 lung
SR leukemia = system: SR leukemia
SF-295 CNS = system: SF-295 CNS
HOP-92 NSCLC = system: HOP-92 NSCLC

| Structure (SMILES) | TGI (OVCAR-4 ovarian) [µM] | TGI (UO-31 renal) [µM] | TGI (COLO 205 colon) [µM] | TGI (SNB-19 CNS) [µM] | TGI (SK-MEL-28 melanoma) [µM] | TGI (UACC-257 melanoma) [µM] | TGI (NCI-H226 lung) [µM] | TGI (SR leukemia) [µM] | TGI (SF-295 CNS) [µM] | TGI (HOP-92 NSCLC) [µM] | GI50 (SR leukemia) [µM] |
| --- | --- | --- | --- | --- | --- | --- | --- | --- | --- | --- | --- |
| O=C(OCCN=C1c2ccccc2CCc2ccccc21)c1cc([N+](=O)[O-])cc([N+](=O)[O-])c1 | > 100 | > 100 | > 31.6 | > 31.6 | > 31.6 | > 31.6 | > 31.6 | 5.5 | > 31.6 | > 31.6 |  |
| S=c1ssc2c3ssc(=S)c3n(Cc3ccccc3)c12 | > 100 | 67 | > 100 | > 100 | > 100 | > 100 | > 100 | > 100 | > 100 | > 100 |  |
| CCOC(=O)c1nc2cc(N3CCOCC3)c(F)cc2[nH]c1=O | > 100 | > 100 | > 100 | > 100 | > 100 | > 100 | > 100 | > 100 | > 100 | > 100 |  |
| CCOC(=O)CN1CCNCCN(CC(=O)OCC)CCNCC1 | > 100 | > 100 | > 100 | > 100 | > 100 | > 100 | > 100 | > 100 | > 100 | > 100 |  |
| CSC(SC)=C1CC(=O)Nc2ccccc2C1=O | > 100 | > 100 | > 100 | > 100 | > 100 | > 100 | > 100 | > 100 | > 100 | 78.4 |  |
| Clc1ccc(N=C/C=C/Nc2ccc(Cl)cn2)nc1 | 25.7 | 29.2 | 25.3 | 30.1 | 32.9 | 32.3 | 31.2 | 6.69 | 30.6 | 30.1 |  |
| O=C(NN=C1CCN(Cc2ccccc2)CC1)C(O)(c1ccccc1)c1ccccc1 | > 100 | > 100 | > 100 | > 100 | > 100 | > 100 | > 100 | > 100 | > 100 | > 100 |  |
| CC1=C(/C=C/C(C)=C/C=C/C(C)=C/C(=O)OCC2OC(n3cc(F)c(=O)[nH]c3=O)CC2OC(=O)/C=C(C)/C=C/C=C(C)/C=C/C2=C(C)CCCC2(C)C)C(C)(C)CCC1 (stereo unspecified) | > 81.8 | > 26.3 | > 60.1 | > 100 | > 77.6 | > 92.1 | > 69.3 | > 59.6 | > 40.2 | 37.1 |  |
| Cc1ccc(/C=C2\CN(C)CC3=C2OC(N)=C(C#N)C3c2ccc(C)cc2)cc1 (stereo unspecified) | 34 | 53.4 | > 69.3 | 73.4 | > 71.5 | 43.1 | 72.4 | > 100 | 46 | 15.9 |  |
| Clc1ccc(-c2nn3c(CCCCCCCCc4nnc5sc(-c6ccc(Cl)cc6)nn45)nnc3s2)cc1 | > 64.6 | 29.4 | > 100 | > 87.6 | > 79.7 | > 95.2 | > 100 | > 74.3 | 46.6 | > 100 |  |
| COc1cc(NS(C)(=O)=O)ccc1NCc1cnc2ccc3[nH]c(C)ccc3c12 | > 100 | 60.6 | > 100 | > 100 | > 100 | > 100 | > 100 | 33.5 | > 100 | > 100 |  |
| CSc1ccc2c(cc1=O)[C@@H](NC(C)=O)CCc1cc(O)c(O)c(O)c1-2 | 35.5 | 42.8 | > 100 | 78.9 | > 100 | > 100 | 33.4 | > 100 | 31.2 | 70.6 |  |
| CCCCCC(CN1CCOCC1)C(=O)/C=C/c1ccccc1 (stereo unspecified) | 8.19 | 20.1 | 13.9 | 13.2 | 19.1 | 7.83 | 9.31 | 8.5 | 10.2 | 8.54 |  |
| Cc1ccc(Nc2nc(=S)[nH]c3[nH]ncc23)cc1 | > 100 | > 100 | > 100 | > 100 | > 100 | > 100 | > 100 | > 100 | > 100 | > 100 |  |
| COc1c2c(c(OC)c3c1c(=O)c1ccccc1n3C)OCO2 | > 100 | > 100 | 53.9 | > 100 | > 100 | > 100 | > 100 | > 29.7 | > 100 | > 100 |  |
| Cn1cc(C(=O)c2nccc3c2cnc2ccccc23)ccc1=O | > 100 | > 100 | > 100 | > 100 | > 100 | > 100 | > 100 | 49.7 | > 100 | > 100 |  |
| O=C(c1ccccc1)c1ccc(C(c2c(O)c3ccccc3oc2=O)c2c(O)c3ccccc3oc2=O)cc1 | 82.9 | 33 | > 73 | 55.8 | > 73.3 | 49.5 | 55 | 59.3 | 53.3 | > 64.1 |  |
| CCCCCCCCCOC(=O)c1cnc(Cl)cn1 | 71.1 | 34.4 | 51.1 | 47.5 | 52.7 | 45.6 | 32.7 | > 100 | 34.6 | > 100 |  |
| CCN(CC)c1ccc(/C=C(\C#N)c2nc(N)nc(N3N=C(C)CC3(C)C)n2)cc1 | 30.5 | 55.4 | > 100 | 37.1 | > 100 | > 100 | 14.6 | > 100 | 49.7 | 22.4 |  |
| COc1ccc(OC)c(C2CCc3nc4nc(N)nc(N)c4cc3C2)c1 (stereo unspecified) | 4.14 | 15.8 | 17.9 | 6.01 | 6.34 | 6.1 | 30.7 | 7.06 | 26.5 | 5.76 |  |
| CN1C2CCC1CC(OC(c1ccccc1)c1ccccc1)C2 (stereo unspecified) | > 100 | 40.1 | 23.7 | 48.3 | 27.8 | 26.6 | 72.6 | 42 | 23.5 | 29.1 |  |
| C/C(=N/NC(=S)Nc1ccccc1Cl)c1ccccn1 | 14.5 | 12.3 | 2.54 | 48.5 | 23 | 1.07 | 1.65 | 3.22 | 9.57 | 22.7 |  |
| Cc1ccc(S(=O)ON2CCC(C(=O)O)(c3ccccc3)CC2)cc1 (stereo unspecified) | > 100 | > 100 | > 100 | > 100 | > 100 | > 100 | > 100 | > 100 | > 100 | > 100 | > 100 |
| Brc1cccc(/C=C/CN2CCN(CCOC(c3ccccc3)c3ccccc3)CC2)c1 | 25.2 | 27.7 | 36.2 | 37.7 | 37.5 | 33.4 | 38.2 | 28.3 | 32.6 | 17.8 |  |
| O=c1c2ccccc2nc2n1NC(c1c(Cl)cccc1Cl)N2c1cccc(Cl)c1 (stereo unspecified) | 6.73 | 7.39 | > 100 | 18 | > 100 | > 100 | 6.36 | > 100 | > 100 | 21.8 |  |
| CC(=O)N=C(N=Nc1c(O)[nH]c2ccc(C)cc12)NC(C)=O | > 100 | > 100 | > 100 | > 100 | > 100 | > 100 | > 100 | > 100 | > 100 | > 100 |  |
